Tests used:
[1] = target: T1, MAGL (Homo sapiens, UniProt Q99685); test: In vitro competitive substrate hydrolysis enzyme activity assay (pNPA), HEK293 cell lysates; format: biochemical; design: expressed in transfected cells; host or cells: HEK293; settings: HEK293 lysate
T1 sequence (Q99685 1-303): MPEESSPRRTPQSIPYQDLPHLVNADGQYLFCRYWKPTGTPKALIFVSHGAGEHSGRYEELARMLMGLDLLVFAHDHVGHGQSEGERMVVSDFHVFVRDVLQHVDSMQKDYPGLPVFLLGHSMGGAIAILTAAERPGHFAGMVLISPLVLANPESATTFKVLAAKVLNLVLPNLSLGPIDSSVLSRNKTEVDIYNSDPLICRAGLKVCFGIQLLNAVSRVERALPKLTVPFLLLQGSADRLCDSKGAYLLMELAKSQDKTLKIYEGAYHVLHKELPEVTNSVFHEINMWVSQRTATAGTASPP
Protocol: HEK293 cell lysates expressing recombinant human MAGL enzyme and 4-nitrophenyl acetate (pNPA) substrate were diluted separately in 50 mM HEPES (pH 7.0) containing 200 mM KCl and 1 mM EDTA. Lysates (50 μL, ˜1.2 μg total protein) were preincubated with varying concentrations of inhibitors at 25° C. After 30 min, 2×pNPA substrate (50 μL, 2.5 mM) was added and the rate of substrate turnover was monitored by measuring the increase in absorbance at wavelength 405 nm for 20 minutes at 25° C. using a Biotek Neo2 plate reader. The mean velocity was converted to percent enzyme activity following background subtraction and normalization to DMSO controls. IC50 values were determined by fitting percent enzyme activities to a non-linear regression, 4-parameter, sigmoidal dose response function in Prism GraphPad.

[2] = target: T1, MAGL; test: In vitro competitive activity-based protein profiling, PC3 human cell membrane proteomes; format: biochemical; design: endogenous in cells; host or cells: PC3 human cells (membrane proteome); settings: human PC3 membrane proteome; for inhibition at 1 µM: read-out: MAGL % inh. 1 μM (human PC3)
In short: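 Competitive ABPP in PC3 membrane proteome (2.0 mg/mL protein): inhibitors preincubated 30 min at 37° C, then JW912-Bodipy probe added for 30 min at room temperature. MAGL band fluorescence after SDS-PAGE normalised to DMSO; IC50 from 4-parameter sigmoidal fit.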

SMILES | IC50 [1] | IC50 [2] | inhibition at 1 µM [2]
O=C(NC(=O)C1CC12CCN(C(=O)OC(C(F)(F)F)C(F)(F)F)CC2)c1ccccc1 (single isomer, unassigned) [Example 94, 1,1,1,3,3,3-hexafluoropropan-2-yl (R or S)-1-(benzoylcarbamoyl)-6-azaspiro[2.5]octane-6-carboxylate] | 0.00323 µM | 0.0051 µM | –
O=C(Nc1cncnc1)C1CC12CCN(C(=O)OC(C(F)(F)F)C(F)(F)F)CC2 (single isomer, unassigned) [Example 97, 1,1,1,3,3,3-hexafluoropropan-2-yl (R or S)-1-(pyrimidin-5-ylcarbamoyl)-6-azaspiro[2.5]octane-6-carboxylate] | 1.38 µM | 0.2 µM | –
O=C(Nc1cncc(F)c1)C1CC12CCN(C(=O)OC(C(F)(F)F)C(F)(F)F)CC2 (single isomer, unassigned) [Example 39, 1,1,1,3,3,3-hexafluoropropan-2-yl (R or S)-1-((5-fluoropyridin-3-yl)carbamoyl)-6-azaspiro[2.5]octane-6-carboxylate] | 0.319 µM | 0.29 µM | 90%
O=C(NC(=O)C1CC12CCN(C(=O)OC(C(F)(F)F)C(F)(F)F)CC2)C1CCCCC1 (single isomer, unassigned) [Example 91, 1,1,1,3,3,3-hexafluoropropan-2-yl (R or S)-1-((cyclohexanecarbonyl)carbamoyl)-6-azaspiro[2.5]octane-6-carboxylate] | 0.00599 µM | 0.0037 µM | –
CN(C(=O)[C@H]1CC12CCN(C(=O)OC(C(F)(F)F)C(F)(F)F)CC2)c1cnccn1 (single isomer, unassigned) [Example 12] | 0.102 µM | – | 100%
O=C(NC(=O)C1CC12CCN(C(=O)OC(C(F)(F)F)C(F)(F)F)CC2)c1ccccc1 (single isomer, unassigned) [Example 93, 1,1,1,3,3,3-hexafluoropropan-2-yl (R or S)-1-(benzoylcarbamoyl)-6-azaspiro[2.5]octane-6-carboxylate] | 0.00284 µM | – | 100%
O=C(OC(C(F)(F)F)C(F)(F)F)N1CCC2(CC1)CC2C(=O)N1CCn2ccnc2C1 (racemic) [Example 186, 1,1,1,3,3,3-hexafluoropropan-2-yl (+)1-(5,6,7,8-tetrahydroimidazo[1,2-a]pyrazine-7-carbonyl)-6-azaspiro[2.5]octane-6-carboxylate] | 0.168 µM | – | 100%
O=C(OC(C(F)(F)F)C(F)(F)F)N1CCC2(CC1)CC2C(=O)N1CCc2nc(C3CC3)ncc2C1 (single isomer, unassigned) [Example 63, 1,1,1,3,3,3-hexafluoropropan-2-yl (R or S)-1-(2-cyclopropyl-5,6,7,8-tetrahydropyrido[4,3-d]pyrimidine-6-carbonyl)-6-azaspiro[2.5]octane-6-carboxylate] | 0.0169 µM | 0.007 µM | 100%
CN(C(=O)C1CC12CCN(C(=O)OC(C(F)(F)F)C(F)(F)F)CC2)c1cccnc1 (single isomer, unassigned) [Example 42, 1,1,1,3,3,3-hexafluoropropan-2-yl (R or S)-1-(methyl(pyridin-3-yl)carbamoyl)-6-azaspiro[2.5]octane-6-carboxylate] | 0.243 µM | – | 100%
O=C(OC(C(F)(F)F)C(F)(F)F)N1CCC2(CC1)CC2C(=O)N1CCc2ncncc2C1 (single isomer, unassigned) [Example 60, 1,1,1,3,3,3-hexafluoropropan-2-yl (R or S)-1-(5,6,7,8-tetrahydropyrido[4,3-d]pyrimidine-6-carbonyl)-6-azaspiro[2.5]octane-6-carboxylate] | 0.0854 µM | 0.036 µM | –
O=C(OC(C(F)(F)F)C(F)(F)F)N1CCC2(CC1)CC2C(=O)N1CCc2cncnc2C1 (racemic) [Example 187, 1,1,1,3,3,3-hexafluoropropan-2-yl (+)1-(5,6,7,8-tetrahydropyrido[3,4-d]pyrimidine-7-carbonyl)-6-azaspiro[2.5]octane-6-carboxylate] | 0.143 µM | 0.11 µM | 100%
O=C(OC(C(F)(F)F)C(F)(F)F)N1CCC2(CC1)CC2C(=O)N1CCN(C2CC2)CC1 (racemic) [Example 34, 1,1,1,3,3,3-Hexafluoropropan-2-yl (±)1-(4-cyclopropylpiperazine-1-carbonyl)-6-azaspiro[2.5]octane-6-carboxylate] | 0.148 µM | – | 100%

Other lines, results leading:

IC50 [1] | IC50 [2] | inhibition at 1 µM [2] | SMILES
0.00299 µM | 0.008 µM | – | O=C(Nc1ccc(C(F)(F)F)nc1)C1CC12CCN(C(=O)OC(C(F)(F)F)C(F)(F)F)CC2 (single isomer, unassigned) [Example 78, 1,1,1,3,3,3-hexafluoropropan-2-yl (R or S)-1-((6-(trifluoromethyl)pyridin-3-yl)carbamoyl)-6-azaspiro[2.5]octane-6-carboxylate]
0.139 µM | – | 100% | O=C(Nc1ccccn1)C1CC12CCN(C(=O)OC(C(F)(F)F)C(F)(F)F)CC2 (single isomer, unassigned) [Example 48, 1,1,1,3,3,3-hexafluoropropan-2-yl (R or S)-1-(pyridin-2-ylcarbamoyl)-6-azaspiro[2.5]octane-6-carboxylate]
0.00241 µM | 0.0035 µM | – | O=C(NCc1cccc(C(F)(F)F)n1)C1CC12CCN(C(=O)OC(C(F)(F)F)C(F)(F)F)CC2 (single isomer, unassigned) [Example 76, 1,1,1,3,3,3-hexafluoropropan-2-yl (R or S)-1-(((6-(trifluoromethyl)pyridin-2-yl)methyl)carbamoyl)-6-azaspiro[2.5]octane-6-carboxylate]
0.00102 µM | 0.0042 µM | 100% | O=C(Nc1cncc(Cl)c1)C1CC12CCN(C(=O)OC(C(F)(F)F)C(F)(F)F)CC2 (single isomer, unassigned) [Example 66, 1,1,1,3,3,3-hexafluoropropan-2-yl (R or S)-1-((5-chloropyridin-3-yl)carbamoyl)-6-azaspiro[2.5]octane-6-carboxylate]
0.0232 µM | 0.0048 µM | 100% | O=C(OC(C(F)(F)F)C(F)(F)F)N1CCC2(CC1)CC2C(=O)N1CCn2cc(C(F)(F)F)nc2C1 (single isomer, unassigned) [Example 51, 1,1,1,3,3,3-hexafluoropropan-2-yl (R or S)-1-(2-(trifluoromethyl)-5,6,7,8-tetrahydroimidazo[1,2-a]pyrazine-7-carbonyl)-6-azaspiro[2.5]octane-6-carboxylate]
0.00617 µM | – | 100% | O=C(Nc1cccc(C(F)(F)F)n1)C1CC12CCN(C(=O)OC(C(F)(F)F)C(F)(F)F)CC2 (single isomer, unassigned) [Example 72, 1,1,1,3,3,3-hexafluoropropan-2-yl (R or S)-1-((6-(trifluoromethyl)pyridin-2-yl)carbamoyl)-6-azaspiro[2.5]octane-6-carboxylate]
0.463 µM | 0.2 µM | 100% | O=C(NCc1cccnc1)C1CC12CCN(C(=O)OC(C(F)(F)F)C(F)(F)F)CC2 (single isomer, unassigned) [Example 87, 1,1,1,3,3,3-hexafluoropropan-2-yl (R or S)-1-((pyridin-3-ylmethyl)carbamoyl)-6-azaspiro[2.5]octane-6-carboxylate]
0.00421 µM | 0.001 µM | 100% | O=C(Nc1ccnc(C(F)(F)F)n1)[C@H]1CC12CCN(C(=O)OC(C(F)(F)F)C(F)(F)F)CC2 (single isomer, unassigned) [Example 17]
0.00911 µM | – | 100% | O=C(NCc1cccc(C(F)(F)F)n1)C1CC12CCN(C(=O)OC(C(F)(F)F)C(F)(F)F)CC2 (single isomer, unassigned) [Example 75, 1,1,1,3,3,3-hexafluoropropan-2-yl (R or S)-1-(((6-(trifluoromethyl)pyridin-2-yl)methyl)carbamoyl)-6-azaspiro[2.5]octane-6-carboxylate]
0.0993 µM | 0.032 µM | 100% | CN(C(=O)[C@@H]1CC12CCN(C(=O)OC(C(F)(F)F)C(F)(F)F)CC2)c1cnccn1 (single isomer, unassigned) [Example 11]
0.111 µM | – | 100% | O=C(Nc1cnccn1)C1CC12CCN(C(=O)OC(C(F)(F)F)C(F)(F)F)CC2 (single isomer, unassigned) [Example 54, 1,1,1,3,3,3-hexafluoropropan-2-yl (R or S)-1-(pyrazin-2-ylcarbamoyl)-6-azaspiro[2.5]octane-6-carboxylate]

From US20240018120A1, “MAGL INHIBITORS” (H. LUNDBECK A/S, priority 2020, published 2024)
